Measurements published in patent publication US20180078576A1, “SULPHATED XYLANS FOR TREATMENT OR PROPHYLAXIS OF RESPIRATORY DISEASES” (Paradigm Biopharmaceuticals Limited, priority 2007, published 2018).

Key:
[1] = target: recombinant human IL-2 (rhIL-2) (Homo sapiens, UniProt P60568); test: IL-2 dependent CTL-Luc cell proliferation; type: cell-based
Text: The murine cytotoxic T lymphocytic line (CTLL) is a subclone of T cells derived from a C57bl/6 mouse. The cells require interleukin-2 (IL-2) for growth and are used to assay for its presence in conditioned media. The cells are responsive to both murine and human IL-2. CTLL cells have been transfected with the firefly luciferase gene contained in the expression vector, pPGK-puromycin-luciferase (Coombe et al, 1998, supra). The positive transfectants are cloned to produce a line with good luciferase expression and these cells are called CTL-Luc. The proliferation assays are carried out in 96-well microplates suitable for such assays (Falcon). […] The cells are counted with a Coulter Z2 Particle Counter and Size Analyzer (Coulter Electronics, England) and routinely 1.6×10^4 cells are added to microplate wells that contain either no recombinant human IL-2 (rhIL-2) (negative control) or various dilutions of rhIL-2. When the effect of PPS, or other sulfated polysaccharides is to be measured, the wells also contain various concentrations of these molecules.
The CTL-Luc cells proliferate for 24 hours at 37° C. in a humidified atmosphere, after which the luciferase activity is measured by the addition of 50 μl of luciferase substrate buffer (50 mM Tris-HCl, pH 7.8, 15 mM MgSO4, 33.3 mM DTT, 0.1 mM EDTA, 0.5 mM Na-luciferin, 0.5 mM ATP, 0.25 mM lithium Co A and 0.5% v/v Triton X-100). […]

[2] = relative to heparin; cited from earlier work
Human leukocyte elastase = target: T1, Human leukocyte elastase (Homo sapiens, UniProt P08246); test: Elastase assay with fluorogenic substrate; type: biochemical; conditions: fluorogenic substrate MeOSuc-Ala-Ala-Pro-Val-amido-methylcoumarin, pH 7.4, 37° C., 60 minutes; read-out: IC50, inhibition of human leukocyte elastase activity
T1 sequence (P08246 30-267): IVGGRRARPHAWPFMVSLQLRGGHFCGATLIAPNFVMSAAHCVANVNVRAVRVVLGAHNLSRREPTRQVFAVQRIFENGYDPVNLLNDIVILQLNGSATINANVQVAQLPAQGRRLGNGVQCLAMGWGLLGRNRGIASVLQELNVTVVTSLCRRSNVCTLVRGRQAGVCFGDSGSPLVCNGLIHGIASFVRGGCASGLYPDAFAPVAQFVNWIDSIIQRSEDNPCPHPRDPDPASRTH
Description: Elastase is a protein that is a potential target for the treatment of COPD. Elastase assays were performed in 96-well plastic microplates for easy quantification by the fluorescent plate reader. Human leukocyte elastase (5 nM/well) was incubated in the presence of absence of pentosan polysulfate, or other sulfated polysaccharides, with the fluorogenic substrate MeOSuc-Ala-Ala-Pro-Val-amido-methylcoumarin (20 μM/well) in a sodium phosphate buffer, pH 7.4. The mixture was incubated at 37° C. for 60 minutes before the reaction was stopped by the addition of 10 μl/well of […] acetic acid and the mixture transferred to a 96-well microplate with fluorescence being measured using an excitation wavelength of 355 nm and an emission wavelength of 460 nm. Various concentrations of inhibitors were used to allow the calculation of the concentration of polysaccharide required to inhibit enzyme activity by 50% (IC50).

human MCP-1 = human MCP-1 (Homo sapiens, UniProt P13500); test: MCP-1 induced migration of THP-1 cells (chemotaxis); type: cell-based; conditions: 50 μg/ml, MCP-1 10 ng/ml
Sequence of human MCP-1 (P13500 24-99): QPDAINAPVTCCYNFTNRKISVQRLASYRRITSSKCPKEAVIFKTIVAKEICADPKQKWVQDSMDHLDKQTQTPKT
Description: These cells were originally derived from the peripheral blood of a patient with acute monocytic leukaemia. The assay was very similar to that described above. The chemotaxis assays were performed in 96-well Costar chemotaxis plates and human MCP-1 (+/−inhibitor) was added to the bottom chamber and the THP-1 cells in RPMI/1% FCS were added to the top chamber and the plate was incubated at 37° C. for 2.5 hour to allow cells to move from the top chamber into the bottom. The number of cells migrating into the bottom chamber was quantified by labeling with AQUEOUS ONE (30 μl/well) for 4 hours before absorbance at 490 run is read. MCP-1 was used at a final concentration of 10 ng/ml and the inhibitors were the sulfated xylan pentasaccharide (10 and 50 μg/ml) and PPS (10 and 50 μg/ml). In these experiments both PPS and the sulfated xylan pentasaccharide were effective, but PPS was a better inhibitor (FIG. 18) as at 50 μg/ml PPS inhibited cell movement by 89% whereas at the same concentration the sulfated xylan pentasaccharide cell movement by 53%.

Sequence of recombinant human IL-2 (rhIL-2) (P60568 21-153): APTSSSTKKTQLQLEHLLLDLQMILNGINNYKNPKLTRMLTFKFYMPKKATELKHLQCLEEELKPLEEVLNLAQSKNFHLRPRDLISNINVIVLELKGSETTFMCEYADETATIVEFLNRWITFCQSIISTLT

Effect on proliferation of CTL-Luc cells obtained with rhIL-2 ([1]; 10 μg/ml or 1 μg/ml, rhIL-2 1.25 ng/ml, FIG. 9): no effect
IC50 (Human leukocyte elastase): ~1800 nM
Inhibition of cell movement induced by MCP-1 (human MCP-1): 89%
Substance: Pentosan polysulfate [PPS]
Toxicity to cytokine dependent lymphocytic cell lines ([1]; IL-2 and GM-CSF responsive cell lines, 10 and 1 μg/ml): not toxic
Anticoagulant activity as fraction of that of heparin [2]: about 1/15
